Measurements as given in patent US6274715A, “Tricyclic erythromycin derivatives” (priority 1997, dated 2001).
Converted amounts (≈) assume the structure as drawn.

Columns and labels:
Format in all cases: cell-based
[1] = system: STAPHYLOCOCCUS AUREUS ATCC 6538P; test: In vitro antibacterial activity, MIC, BHI agar dilution; details: S. aureus ATCC 6538P, 35-37° C., 20 to 24 hours, unit assumed
[2] = system: STAPHYLOCOCCUS AUREUS A5177; test: as above; details: S. aureus A5177, unit assumed
[3] = system: STAPHYLOCOCCUS AUREUS A-5278; test: as above; details: S. aureus A-5278, unit assumed
[4] = system: STAPHYLOCOCCUS AUREUS CMX 642A; test: as above; details: S. aureus CMX 642A, unit assumed
[5] = system: STAPHYLOCOCCUS AUREUS NCTC10649M; test: as above; details: S. aureus NCTC10649M, unit assumed
[6] = system: STAPHYLOCOCCUS AUREUS CMX 553; test: as above; details: S. aureus CMX 553, unit assumed
[7] = system: STAPHYLOCOCCUS AUREUS 1775; test: as above; details: S. aureus 1775, unit assumed
[8] = system: STAPHYLOCOCCUS EPIDERMIDIS 3519; details: S. epidermidis 3519; BHI agar; unit assumed
[9] = system: EN[…] ATCC 8043; test: In vitro antibacterial activity, MIC, BHI agar dilution; details: E. faecium ATCC 8043, unit assumed
Method in brief: (§1)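 BHI agar dilution: twelve plates with successive compound dilutions, inoculated by replicator with 1:100 culture dilutions (1:10 for slow growers such as Micrococcus and Streptococcus), 20 to 24 hours at 35-37° C. MIC was the lowest concentration giving no growth, slight haze or sparse isolated colonies versus drug-free control; erythromycin A as class reference.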

[10] = system: M[…] ATCC 4698; test: as above; details: M. luteus ATCC 4698, unit assumed
Method in brief: as §1

[11] = system: M[…] ATCC 9341; test: as above; details: M. luteus ATCC 9341, unit assumed
Method in brief: as §1

[12] = system: STR[…] 508; test: as above; details: S. agalactiae CMX 508, unit assumed
Method in brief: as §1

[13] = system: STREPTOCOCCUS BOVIS A-5169; test: as above; details: S. bovis A-5169, unit assumed
[14] = system: STREPTOCOCCUS PYOGENES EES61; test: as above; details: S. pyogenes EES61, unit assumed
[15] = system: STREPTOCOCCUS PYOGENES 930; test: as above; details: S. pyogenes 930, unit assumed
[16] = system: STREPTOCOCCUS PYOGENES PIU 2548; test: as above; details: S. pyogenes PIU 2548, unit assumed
[17] = system: ESCHERICHIA COLI JUHL; details: E. coli JUHL; BHI agar; unit assumed
[18] = system: ESCHERICHIA COLI SS; test: In vitro antibacterial activity, MIC, BHI agar dilution; details: E. coli SS, unit assumed
[19] = system: ESCHERICHIA COLI DC-2; test: as above; details: E. coli DC-2, unit assumed
[20] = system: ESCHERICHIA COLI H560; test: as above; details: E. coli H560, unit assumed
[21] = system: ESCHERICHIA COLI KNK 437; details: E. coli KNK 437; BHI agar; unit assumed
[22] = system: ENTEROBACTER AEROGENES ATCC 13048; test: In vitro antibacterial activity, MIC, BHI agar dilution; details: E. aerogenes ATCC 13048, unit assumed
[23] = system: KLEBSIELLA PNEUMONIAE ATCC 8045; test: as above; details: K. pneumoniae ATCC 8045, unit assumed
[24] = system: PROVIDENCIA STUARTII CMX 640; details: P. stuartii CMX 640; BHI agar; unit assumed
[25] = system: PSEUDOMONAS AERUGINOSA BMH10; test: In vitro antibacterial activity, MIC, BHI agar dilution; details: P. aeruginosa BMH10, unit assumed
[26] = system: PSEUDOMONAS AERUGINOSA 5007; test: as above; details: P. aeruginosa 5007, unit assumed
[27] = system: PSEUDOMONAS AERUGINOSA K799/WT; test: as above; details: P. aeruginosa K799/WT, unit assumed
[28] = system: PSEUDOMONAS AERUGINOSA K799/61; test: as above; details: P. aeruginosa K799/61, unit assumed
[29] = system: PSEUDOMONAS CEPACIA 296I; test: as above; details: P. cepacia 296I, unit assumed
[30] = system: PSEUDOMONAS AERUGINOSA DPHD-5263; test: as above; details: P. aeruginosa DPHD-5263, unit assumed
[31] = system: PSEUDOMONAS AERUGINOSA DPHD-2862; test: as above; details: P. aeruginosa DPHD-2862, unit assumed
[32] = system: CANDIDA ALBICANS CCH 442; test: as above; details: C. albicans CCH 442, unit assumed
[33] = system: MYCOBACTERIUM SMEGMATIS ATCC 114; test: as above; details: M. smegmatis ATCC 114, unit assumed

Row | Compound | MIC [1] [µg/mL] | MIC [2] [µg/mL] | MIC [3] [µg/mL] | MIC [4] [µg/mL] | MIC [5] [µg/mL] | MIC [6] [µg/mL] | MIC [7] [µg/mL] | MIC [8] [µg/mL] | MIC [9] [µg/mL] | MIC [10] [µg/mL] | MIC [11] [µg/mL] | MIC [12] [µg/mL] | MIC [13] [µg/mL] | MIC [14] [µg/mL] | MIC [15] [µg/mL] | MIC [16] [µg/mL] | MIC [17] [µg/mL] | MIC [18] [µg/mL] | MIC [19] [µg/mL] | MIC [20] [µg/mL] | other results
1 | CC[C@H]1OC(=O)[C@H](C)C(=O)[C@H](C)[C@@H](O[C@@H]2O[C@H](C)C[C@H](N(C)C)[C@H]2O)[C@](C)(OC)C[C@@H](C)C2=N[C@H](CN3CCN(C)CC3)CN3C(=O)O[C@@]1(C)[C@H]3[C@H]2C [Example 93] | 0.78 (≈ 1.04 µM) | 0.78 (≈ 1.04 µM) | > 100 | 0.78 (≈ 1.04 µM) | 0.78 (≈ 1.04 µM) | 0.78 (≈ 1.04 µM) | > 100 | 0.78 (≈ 1.04 µM) | 0.39 (≈ 0.52 µM) | 0.78 (≈ 1.04 µM) | 0.1 (≈ 0.133 µM) | 0.1 (≈ 0.133 µM) | 0.02 (≈ 0.0267 µM) | 0.02 (≈ 0.0267 µM) | > 100 | 3.1 (≈ 4.13 µM) | > 100 | 0.78 (≈ 1.04 µM) | > 100 | 100 (≈ 133 µM) | MIC [21]: > 100 µg/mL; MIC [22]: > 100 µg/mL; MIC [23]: > 100 µg/mL; MIC [24]: > 100 µg/mL; MIC [25]: > 100 µg/mL; MIC [26]: > 100 µg/mL; MIC [27]: > 100 µg/mL; MIC [28]: 3.1 µg/mL (≈ 4.13 µM); MIC [29]: > 100 µg/mL; MIC [30]: > 100 µg/mL; MIC [31]: > 100 µg/mL; MIC [32]: > 100 µg/mL; MIC [33]: 12.5 µg/mL (≈ 16.7 µM)
2 | CC[C@H]1OC(=O)[C@H](C)C(=O)[C@H](C)[C@@H](O[C@@H]2O[C@H](C)C[C@H](N(C)C)[C@H]2O)[C@](C)(OC)C[C@@H](C)C2=N[C@H](CN3CCOCC3)CN3C(=O)O[C@@]1(C)[C@H]3[C@H]2C [Example 95] | 0.39 (≈ 0.529 µM) | 0.39 (≈ 0.529 µM) | > 100 | 0.39 (≈ 0.529 µM) | 0.39 (≈ 0.529 µM) | 0.39 (≈ 0.529 µM) | > 100 | 0.39 (≈ 0.529 µM) | 0.2 (≈ 0.271 µM) | 0.39 (≈ 0.529 µM) | 0.1 (≈ 0.136 µM) | 0.1 (≈ 0.136 µM) | 0.02 (≈ 0.0271 µM) | 0.05 (≈ 0.0678 µM) | > 100 | 0.39 (≈ 0.529 µM) | 100 (≈ 136 µM) | 0.39 (≈ 0.529 µM) | > 100 | 50 (≈ 67.8 µM) | MIC [21]: > 100 µg/mL; MIC [22]: > 100 µg/mL; MIC [23]: > 100 µg/mL; MIC [24]: > 100 µg/mL; MIC [25]: > 100 µg/mL; MIC [26]: > 100 µg/mL; MIC [27]: > 100 µg/mL; MIC [28]: 1.56 µg/mL (≈ 2.12 µM); MIC [29]: > 100 µg/mL; MIC [30]: > 100 µg/mL; MIC [31]: > 100 µg/mL; MIC [32]: > 100 µg/mL; MIC [33]: 3.1 µg/mL (≈ 4.21 µM)
3 | CCC1OC(=O)C(C)C(=O)C(C)C(OC2OC(C)CC(N(C)C)C2O)C(C)(OC)CC(C)C2=NC(CN3CCCCC3)CN3C(=O)OC1(C)C3C2C (stereo not drawn) [Example 96] | 0.2 (≈ 0.272 µM) | 0.2 (≈ 0.272 µM) | > 100 | 0.39 (≈ 0.531 µM) | 0.39 (≈ 0.531 µM) | 0.39 (≈ 0.531 µM) | > 100 | 0.39 (≈ 0.531 µM) | 0.1 (≈ 0.136 µM) | 0.39 (≈ 0.531 µM) | 0.02 (≈ 0.0272 µM) | 0.05 (≈ 0.068 µM) | 0.01 (≈ 0.0136 µM) | 0.02 (≈ 0.0272 µM) | > 100 | 0.39 (≈ 0.531 µM) | 25 (≈ 34 µM) | 0.39 (≈ 0.531 µM) | 25 (≈ 34 µM) | 12.5 (≈ 17 µM) | MIC [21]: 50 µg/mL (≈ 68 µM); MIC [22]: 100 µg/mL (≈ 136 µM); MIC [23]: 100 µg/mL (≈ 136 µM); MIC [24]: > 100 µg/mL; MIC [25]: 100 µg/mL (≈ 136 µM); MIC [26]: > 100 µg/mL; MIC [27]: > 100 µg/mL; MIC [28]: 0.78 µg/mL (≈ 1.06 µM); MIC [29]: > 100 µg/mL; MIC [30]: > 100 µg/mL; MIC [31]: > 100 µg/mL; MIC [32]: > 100 µg/mL; MIC [33]: 3.1 µg/mL (≈ 4.22 µM)
